What was measured:
[1] = test system: human islet cells; test: Caspase-Glo 3/7 assay in palmitic acid-treated human islets; format: cell-based; parameters: rescuing human islet cells from apoptosis, compared with L-798106 / inhibiting or reversing palmitate-induced apoptosis in pancreatic islets of both human donors / inhibition of palmitate-induced apoptosis in human islets, donor 1: dose or concentration left out as unconfirmed; settings: palmitic acid, 48 h; for rescuing human islet cells from apoptosis, compared with L-798106: two human donors
Experimental: (§1) Islet and cell culture: The pancreatic β-cell line MIN6, which is a clonal murine insulin-secreting line, was cultured in DMEM (Biological Industries, Beit Haemek, Israel) supplemented with 11 mM Glucose, 2 mM glutamine, 15% heat-inactivated fetal calf serum (FCS), 100 U/ml penicillin, 100 µg/ml streptomycin and 61 μM β-mercaptoethanol. Human islets were obtained from the European Consortium for Islet Transplantation (ECIT) at the San Raffaele Hospital and from the Niguarda Hospital, (Milan, Italy) and cultured in CMRL-1066 media (Biological Industries, Beit HaEmek, Israel) supplemented with 10% FCS, 5.5 mM glucose, 2 mM L-Glutamine, 100 U/ml penicillin, 100 μg/ml streptomycin and 150 μg/ml gentamycin. Palmitate was added to 1% FCS and 0.5% defatted BSA (Roche, Germany).
Next, the ability of the compounds to rescue human islet cells from palmitate-induced apoptosis was determined. To this end, the Caspase-Glo 3/7 assay reagent (Promega) was used for caspase 3/7 detection in palmitic acid-treated cells. The reagent provides a proluminescent caspase-3/7 substrate, which contains the tetrapeptide sequence DEVD, in combination with luciferase and a cell-lysing agent. The addition of the reagent directly to the wells results in cell lysis, followed by caspase cleavage of the DEVD substrate, and the generation of luminescence.
Accordingly, human islets from two donors were exposed to the various compounds or to L-798106 for 48 h in the presence of palmitic acid, and the bioluminescence was measured as compared to control cells. FIGS. 3A-3B show the results of the treatment with […] of the compounds in two human donors (FIG. 3A—donor 1, FIG. 3B—donor 2). PA: Palmitate; L: L-798106; RLU: Relative Light Units. The results are average of triplicates or quadruplicates ±SEM (except in islets from L-798106 treated donor 2, representing duplicates).
Next, various concentrations of the compounds were tested in human pancreatic islet cells. Cells obtained from the first healthy donor (donor 1) were incubated in the presence or absence of PA with C13, C5 or L-798106 (L) at concentrations of 5, 2.5 and 0.5 μM. Caspase 3/7 enzymatic activity was measured as described above. The enzymatic activity is presented in FIG. 5A for 5 μM, FIG. 5B for 2.5 μM and FIG. 5C for 0.5 μM as relative light units (RLU/μg protein) and the graphs represent the average of n=3-4.

[2] = test system: db/db mice; test: random blood glucose levels in db/db and control mice; format: in vivo; settings: for average random blood glucose levels in db/db mice: 8 weeks gavage, compared to the vehicle; for random blood glucose levels at 8 weeks: compared with L-798106 treated mice
Experimental: The effects of the compounds were tested in an in vivo model of diabetes. To this end, C57BLKS/J mice with the leptin receptor mutation (BKS-db; BKS.Cg-Dock7m+/+Leprdb/J), known as an animal model characteristic of human T2DM, were used, when both male and female homozygotes to Leprb mutation (db/db) develop spontaneous T2DM with phenotypes that include: (I) severe obesity, (II) progressive and sustained hyperglycemia, when the course of the disease is markedly influenced by genetic background BLKS (in contrast to regular C57BL/6J background mice with the same mutation (B6-db), (III) glucose intolerance resulting in elevated serum cholesterol, glucose, and triglycerides, and (VI) elevations of plasma blood sugar resulting in severe depletion of the insulin-producing β-cells of the pancreatic islets, and eventually death.
Two sets of experiments with two colonies of homozygote mice were performed with the C5 and C13 compounds (n=5 for each experiment), compared to L-798106. The compounds were administered to 7-8-week-old mice by oral gavage (2.5 mg/kg/day) for eight weeks. Control group (n=10-15) received vehicle (DMSO in PBS). Blood glucose was randomly tested throughout the experiment.
To test the effect of the compounds C15, C17 and C20 on random blood glucose levels, control and db/db mice underwent essentially the same treatment course and measurements as described in Example 9.

[3] = test system: db/db mice; test: intraperitoneal glucose tolerance test (IPGTT); format: in vivo; settings: 8 weeks oral 2.5 mg/kg/day; glucose 1 g/kg; all time points; vs vehicle
Experimental: Lepr^db/db homozygotes (db/db) and heterozygote Lepr^db/+ (wild type) mice were treated daily with 2.5 mg/kg/day oral administration of the Vehicle, the commercial EP3 antagonist L-798106 and the compounds C5 and C13 for 8 weeks, as described in Example 9. A glucose tolerance test (Intraperitoneal glucose tolerance test, IPGTT) was performed following four weeks and eight weeks of the onset of treatment, as follows. Glucose (1 g/kg) was injected following 8 hours of fasting, and blood glucose was measured at baseline and at 30-, 60-, 90- and 120-minutes post glucose administration.
Heterozygote (wild type) and diabetic db/db mice were treated daily with the Vehicle, L-798106 and the compounds C17 and C20 for 8 weeks, essentially as described in Example 9. A glucose tolerance test (IPGTT) was performed essentially as described in Example 10.

[4] = blood insulin concentrations by serum C-peptide ELISA; format: in vivo; settings: 8 weeks oral treatment; vs vehicle-treated diabetic mice
Experimental: At the end of the 8 week-long period of treatment as described in Example 9, mice were sacrificed and blood samples were collected, and analyzed for different parameters as detailed below.
Blood insulin concentrations.
Blood insulin concentrations. Following 8 weeks of treatment, blood samples were collected and the levels of insulin in the collected sera were assessed essentially as described in Example 12. The results are presented in FIG. 28, in which the different test groups as presented in FIG. 28 are represented as described in Example 14 and “ns” indicates non-significant differences. The numbers of tested mice are as follows: vehicle (n=10), L-798106 (n=10), C17 (n=5), C20 (n=5).

[5] = test system: MIN6 cells; test: rescue of MIN6 cells from palmitate-induced apoptosis (cleaved caspase 3 western blot; FACS SubG1); format: cell-based, murine; settings: palmitic acid 0.3 mM, 48 hours; compared to L-798106
Experimental: as §1
Western blotting: Cells were lyzed in Laemmli protein sample buffer, separated on SDS-polyacrylamide gel, and transferred to […] nitrocellulose membranes (Schleicher and Schuell, Dassel, Germany). After blocking in 5% dried skimmed milk, the membranes were first incubated with the appropriate antibodies against: cleaved caspase-3 (Asp175) (Cell Signaling Technology Danvers, MA) and α-tubulin (Sigma-Aldrich.) and then with horseradish peroxidase conjugated anti-rabbit or anti-mouse IgG, followed by analysis with an enhanced chemiluminescence detection kit (Biological Industries, Israel).
The remaining compounds were screened for the ability to rescue β-cells from palmitate-induced apoptosis as compared to the commercial EP3 antagonist L-798106 by measuring the levels of the cleaved caspase 3 apoptotic marker, using Western Blot analysis (FIG. 1). […] Cell extracts were analyzed by western blotting for the presence of cleaved caspase 3 as compared to α-Tubulin.
The ability of the compounds to rescue β-cells from apoptosis was also evaluated using FACS analysis and measuring the SubG1 population (FIG. 2). […] Collected cells were analyzed by FACS and the SubG1 fractions (representing apoptotic cell products or components were compared. The average of 4-6 independent experiments is presented in FIG. 2.

[6] = test system: db/db mice; test: Insulin Tolerance Test (ITT); format: in vivo; settings: 8 weeks oral treatment; 0.75 U/kg insulin; all time points; vs vehicle
Experimental: An Insulin Tolerance Test (ITT) was conducted to determine the effect of the test compounds on insulin resistance, following oral administration of Vehicle or the tested compounds as described in Example 9. To this end, the different treated groups were further subjected to a subsequent 5-hour fast and then injected with 0.75 U/kg insulin. Blood glucose was measured at the time of insulin injection (baseline level) and at the indicated time intervals thereafter. Blood glucose levels and AUC of the wild-type mice are presented in FIGS. 19A-19B respectively, and blood glucose levels and AUC of the db/db mice are presented in FIGS. 19C-19D respectively. The different test groups as presented in FIGS. 19A-19D are represented as described in Example 9.
To determine the effect of the C17 and C20 compounds on insulin resistance, an ITT was conducted essentially as described in Example 11. Blood glucose levels and AUC of the wild-type mice are presented in FIGS. 27A-27B respectively (n=5-15), and blood glucose levels and AUC of the db/db mice are presented in FIGS. 27C-27D respectively (n=5-10). The different test groups as presented in FIGS. 27A-27D are represented as described in Example 14.

[7] = test system: pancreatic β-cell; settings: chow and high-fat diet islets; cited from earlier work

Cc1n[nH]c(C)c1S(=O)(=O)Nc1ccccc1C(=O)N[C@@H](C)c1ccccc1 [Compound C4, (S)-2-((3,5-dimethyl-1H-pyrazole)-4-sulfonamido)-N-(1-phenylethyl)benzamide]
inhibition of palmitate-induced apoptosis in human islets, donor 1 [1]: moderate inhibitory activity comparable to that of L-798106

Cc1nn(C)c(C)c1C[C@@H](C)NC(=O)c1ccc(S(=O)(=O)Nc2ccccc2F)cc1 [Compound C9, (R)-4-(N-(2-fluorophenyl)sulfamoyl)-N-(1-(1,3,5-trimethyl-1H-pyrazol-4-yl)propan-2-yl)benzamide]
inhibition of palmitate-induced apoptosis in human islets, donor 1 [1]: marked inhibitory activity

CCn1nc(C)c(S(=O)(=O)Nc2ccc(Cl)cc2C(=O)c2ccc[nH]2)c1C [Compound C10, N-(4-chloro-2-(1H-pyrrole-2-carbonyl)phenyl)-1-ethyl-3,5-dimethyl-1H-pyrazole-4-sulfonamide]
inhibiting or reversing palmitate-induced apoptosis in pancreatic islets of both human donors [1]: failed to inhibit

COc1ccc([C@@H](CC(=O)O)NC(=O)c2cn(Cc3cccc(F)c3)nn2)cc1OC [Compound C12, (R)-3-(3,4-dimethoxyphenyl)-3-(1-(3-fluorobenzyl)-1H-1,2,3-triazole-4-carboxamido)propanoic acid]
rescuing human islet cells from apoptosis, compared with L-798106 [1]: to a greater extent than the EP3 antagonist L-798106

COc1cc(/C=C(\CCC(=O)O)c2nc3ccccc3s2)ccc1OCc1ccccc1 [Compound C15, (E)-4-(benzo[d]thiazol-2-yl)-5-(4-(benzyloxy)-3-methoxyphenyl)pent-4-enoic acid]
average random blood glucose levels in db/db mice [2]: effective in lowering average blood glucose levels
rescuing human islet cells from apoptosis, compared with L-798106 [1]: to a greater extent than the EP3 antagonist L-798106

COc1cc(/C=C(/CC(=O)O)c2nc3ccccc3s2)ccc1OCc1cccc(C(F)(F)F)c1 [Compound C17, (Z)-3-(benzo[d]thiazol-2-yl)-4-(3-methoxy-4-((3-(trifluoromethyl)benzyl)oxy)phenyl)but-3-enoic acid]
average random blood glucose levels in db/db mice [2]: effective in lowering average blood glucose levels
random blood glucose levels at 8 weeks [2]: the same blood glucose levels as the L-798106 treated mice
hyperglycemia in IPGTT, db/db mice [3]: significantly alleviated hyperglycaemia
blood insulin levels (serum C-peptide) in diabetic mice [4]: the differences did not reach statistical significance
rescue of β-cells from palmitate-induced apoptosis (cleaved caspase 3; SubG1 population) [5]: exceptionally high efficacy
glucose levels after insulin injection (insulin sensitivity), db/db mice [6]: Improve Insulin Sensitivity
rescuing human islet cells from apoptosis, compared with L-798106 [1]: to a greater extent than the EP3 antagonist L-798106

COc1cc(/C=C(\CCC(=O)O)c2nc3ccccc3s2)ccc1OCc1ccc(F)cc1 [Compound C20, (E)-4-(benzo[d]thiazol-2-yl)-5-(4-((4-fluorobenzyl)oxy)-3-methoxyphenyl)pent-4-enoic acid]
average random blood glucose levels in db/db mice [2]: effective in lowering average blood glucose levels
random blood glucose levels at 8 weeks [2]: the same blood glucose levels as the L-798106 treated mice
hyperglycemia in IPGTT, db/db mice [3]: significantly alleviated hyperglycaemia
blood insulin levels (serum C-peptide) in diabetic mice [4]: the differences did not reach statistical significance
glucose levels after insulin injection (insulin sensitivity), db/db mice [6]: Improve Insulin Sensitivity
rescuing human islet cells from apoptosis, compared with L-798106 [1]: to a greater extent than the EP3 antagonist L-798106

C=C1C(=O)OC(CCCCCCCC)C1C(=O)O (stereo not drawn) [Compound C75]
glucose-induced insulin secretion [7]: markedly reduced
β cell electrical activity [7]: markedly reduced

From patent publication US20240261296A1, “THERAPEUTIC MODALITIES FOR INHIBITING PANCREATIC BETA CELL IMPAIRMENT AND TREATING DIABETES” (Hadasit Medical Research Serices & Development Ltd., priority 2021, published 2024)
